Measured values taken from paper PMC10791743, “Selective CK1α degraders exert antiproliferative activity against a broad range of human cancer cell lines” (Nature Communications, 2024).
Where “and” joins values, the source holds several entries; their conditions need not be identical. Equal values may be shown once.

System: PER117 cells
Test: CTG viability, PER117
Format: cell-based, human
Details: for IC50: PER117 cells, replicate values
Protocol: After establishing the potency and selectivity of our lead CK1α degraders, we investigated their effect on a panel of AML and ALL cell lines (Fig. 3a).
The primary screen was performed in 384-well format using the CellTiter Glo (CTG) luminescent cell viability assay (Promega) as previously described. 3630 compounds from the St. Jude proprietary molecular glue library were screened against 9 human cancer cell lines (HD-MB03, MB004, MB002, MHH-CALL4, MOLM-13, TF-1, HEL, OCI-AML3, AML193). Each cell line was cultured in the complete medium recommended by the vendor and seeded in Corning 8804 BC white 384-well assay plates at densities of 1000, 1000, 1500, 7500, 1250, 156, 625, 1250, 1250 cells per well for HD-MB03, MB004, MB002, MHH-CALL4, MOLM-13, TF-1, HEL, OCI-AML, AML193, respectively. After overnight incubation at 37 °C in a humidified 5% CO2 incubator, cells were treated with compounds in dose–response format using a Pintool on a Biomek FX^P Laboratory Automation Workstation (Beckman Coulter). After 72 h of incubation, cell proliferation was assessed using a CellTiter-Glo (CTG) luminescent cell viability assay (Promega) according to the manufacturer’s instructions. Luminescence signal was measured using an EnVision plate reader (PerkinElmer).
HD-MB03 cell line was obtained from Drs. Milde, Witt and Deubzer[52]. HD-MB03 and MB004 cells were grown in a neurobasal medium supplemented with glutamine, streptomycin, penicillin, B27, EGF, bFGF, and heparin as previously described. MB002 and MB004 cells were obtained from Dr Yoon-Jae Cho[54]. MB002 cells were cultured in 80% neurobasal medium supplemented with glutamine, streptomycin, penicillin, B27, and 20% conditioned media from previous passages; EGF, bFGF, and heparin were also added to the medium. MHH-CALL4, NALM-16, MHH-CALL-2 cells were obtained from the German Collection of Microorganisms and Cell Cultures GmbH (DSMZ, Germany). PER-117 cells were obtained from Telethon Kids Institute (Perth, Australia). The cells were cultured in RPMI1640 medium supplemented with 10% FBS (Hyclone), Penicillin/Streptomycin (100 units/mL), and Glutamine (100 µM) except for MHH-CALL-2 cells where 20% FBS were used. MOLM-13 cells were obtained from DSMZ (ACC 554) and cultured in RPMI-1640 media (Gibco) supplemented with 20% FBS (R&D Systems) and 100 U/ml penicillin-streptomycin (Gibco). HNT-34 cells were purchased from DSMZ (ACC 600) and cultured in RPMI-1640 media supplemented with 20% FBS and 100 U/ml penicillin-streptomycin. Kasumi-3 cells were purchased from ATCC (CRL-2725) and cultured in RPMI-1640 media supplemented with 20% FBS and 100 U/ml penicillin-streptomycin. UCSD-AML1 cells were purchased from DSMZ (ACC 691) and cultured in RPMI-1640 media supplemented with 20% FBS, 100 U/ml penicillin–streptomycin, and 10 ng/ml human GM-CSF (PeproTech). […] OCI-AML3 cells were purchased from DSMZ (ACC 690) and cultured in Alpha-MEM media (Invitrogen) supplemented with 20% FBS and 100 U/ml penicillin–streptomycin. HEL cells were obtained from Dr. Charles Mullighan and cultured in RPMI-1640 media supplemented with 10% FBS and 100 U/ml penicillin-streptomycin. AML193 cells were purchased from DSMZ (ACC 549) and cultured in IMDM supplemented with 5% FBS, 100 U/ml penicillin–streptomycin, Insulin–Transferrin–Selenium (ITS-G, Gibco), and 5 ng/ml human GM-CSF. Cell identity was confirmed by STR profiling using PowerPlex® Fusion System (Promega).

Structure (SMILES) | Activity against PER117 cells (CTG) | IC50 (Homo sapiens) | IC50
O=C1CCC(N2Cc3cc(Nc4noc5ccccc45)ccc3C2=O)C(=O)N1 (centres unmarked) [SJ3149] | sub-nanomolar activity | 0.8 nM | 1.1 nM
Cc1cccc(C(=O)Nc2ccc3c(c2)CN(C2CCC(=O)NC2=O)C3=O)c1 (centres unmarked) [SJ0040] |  | 5 nM | 4.7 nM and 5.3 nM
